# Target: T1, MUSK (Homo sapiens, UniProt O15146)
# T1 construct: purchased Thermo Fisher Scientific (Life Technologies) SelectScreen
# Test: SelectScreen Z'LYTE
# Format: biochemical
# In short: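 NU5455 was profiled across the SelectScreen Broad panel of kinase activity and binding assays. Z'LYTE reactions such as CSF1R ran at apparent Km ATP, while the Adapta CAMK1 assay used ATP listed as 10. Values are given as percent.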
# T1 sequence (O15146 24-869): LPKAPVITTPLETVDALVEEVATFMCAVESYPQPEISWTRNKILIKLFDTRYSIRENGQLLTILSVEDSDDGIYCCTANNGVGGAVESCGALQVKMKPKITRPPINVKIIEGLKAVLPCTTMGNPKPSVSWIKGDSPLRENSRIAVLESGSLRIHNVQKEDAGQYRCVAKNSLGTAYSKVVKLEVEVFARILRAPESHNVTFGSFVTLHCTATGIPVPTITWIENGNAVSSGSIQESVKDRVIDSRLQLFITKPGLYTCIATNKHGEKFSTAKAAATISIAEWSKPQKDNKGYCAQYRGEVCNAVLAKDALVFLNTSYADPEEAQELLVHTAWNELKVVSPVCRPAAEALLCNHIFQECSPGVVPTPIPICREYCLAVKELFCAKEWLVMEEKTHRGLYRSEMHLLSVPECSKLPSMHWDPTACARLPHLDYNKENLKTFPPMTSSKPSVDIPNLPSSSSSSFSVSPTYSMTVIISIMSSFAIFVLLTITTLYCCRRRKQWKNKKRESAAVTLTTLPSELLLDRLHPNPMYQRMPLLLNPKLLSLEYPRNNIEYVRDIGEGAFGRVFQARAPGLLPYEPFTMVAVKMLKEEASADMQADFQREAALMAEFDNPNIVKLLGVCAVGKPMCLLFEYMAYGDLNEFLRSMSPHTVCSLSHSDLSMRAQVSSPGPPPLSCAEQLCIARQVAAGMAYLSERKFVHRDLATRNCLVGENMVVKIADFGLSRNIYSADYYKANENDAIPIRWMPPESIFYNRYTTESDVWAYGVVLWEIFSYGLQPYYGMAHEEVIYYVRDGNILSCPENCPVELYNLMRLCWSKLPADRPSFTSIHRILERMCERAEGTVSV
smiles,measurement,value
CN(C(=O)CN1CCOCC1)c1ccc2sc3c(-c4cccc5c(=O)cc(N6CC7CCC(C6)O7)oc45)cccc3c2c1 [NU5455],inhibition at 1 µM,10.3%

# — paper PMC6934184, “Selective DNA-PKcs inhibition extends the therapeutic index of localized radiotherapy and chemotherapy” (The Journal of Clinical Investigation, 2019)
